Key:
[1] = biological target: T1, Tyrosine-protein phosphatase non-receptor type 1 (Homo sapiens, UniProt P18031); assay: Inhibition of human PTP1B (1 to 321 residues) expressed in Escherichia coli using FDP as substrate
T1 sequence (P18031 whole entry): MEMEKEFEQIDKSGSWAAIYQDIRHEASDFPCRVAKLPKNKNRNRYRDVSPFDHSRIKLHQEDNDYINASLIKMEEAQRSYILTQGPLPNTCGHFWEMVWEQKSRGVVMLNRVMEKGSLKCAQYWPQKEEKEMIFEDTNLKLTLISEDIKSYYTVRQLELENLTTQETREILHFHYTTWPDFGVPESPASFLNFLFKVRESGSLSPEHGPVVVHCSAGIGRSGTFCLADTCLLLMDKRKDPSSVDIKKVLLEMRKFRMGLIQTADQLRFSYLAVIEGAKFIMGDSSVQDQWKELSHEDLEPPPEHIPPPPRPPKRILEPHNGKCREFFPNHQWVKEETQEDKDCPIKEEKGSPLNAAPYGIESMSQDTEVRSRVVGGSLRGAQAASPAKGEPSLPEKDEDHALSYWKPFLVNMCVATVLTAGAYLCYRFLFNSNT

[2] = biological target: T2, Receptor-type tyrosine-protein phosphatase C (Homo sapiens, UniProt P08575); assay: Inhibition of human CD45 (564 to […] residues) expressed in Escherichia coli using FDP as substrate incubated for 10 min
T2 sequence (P08575 whole entry): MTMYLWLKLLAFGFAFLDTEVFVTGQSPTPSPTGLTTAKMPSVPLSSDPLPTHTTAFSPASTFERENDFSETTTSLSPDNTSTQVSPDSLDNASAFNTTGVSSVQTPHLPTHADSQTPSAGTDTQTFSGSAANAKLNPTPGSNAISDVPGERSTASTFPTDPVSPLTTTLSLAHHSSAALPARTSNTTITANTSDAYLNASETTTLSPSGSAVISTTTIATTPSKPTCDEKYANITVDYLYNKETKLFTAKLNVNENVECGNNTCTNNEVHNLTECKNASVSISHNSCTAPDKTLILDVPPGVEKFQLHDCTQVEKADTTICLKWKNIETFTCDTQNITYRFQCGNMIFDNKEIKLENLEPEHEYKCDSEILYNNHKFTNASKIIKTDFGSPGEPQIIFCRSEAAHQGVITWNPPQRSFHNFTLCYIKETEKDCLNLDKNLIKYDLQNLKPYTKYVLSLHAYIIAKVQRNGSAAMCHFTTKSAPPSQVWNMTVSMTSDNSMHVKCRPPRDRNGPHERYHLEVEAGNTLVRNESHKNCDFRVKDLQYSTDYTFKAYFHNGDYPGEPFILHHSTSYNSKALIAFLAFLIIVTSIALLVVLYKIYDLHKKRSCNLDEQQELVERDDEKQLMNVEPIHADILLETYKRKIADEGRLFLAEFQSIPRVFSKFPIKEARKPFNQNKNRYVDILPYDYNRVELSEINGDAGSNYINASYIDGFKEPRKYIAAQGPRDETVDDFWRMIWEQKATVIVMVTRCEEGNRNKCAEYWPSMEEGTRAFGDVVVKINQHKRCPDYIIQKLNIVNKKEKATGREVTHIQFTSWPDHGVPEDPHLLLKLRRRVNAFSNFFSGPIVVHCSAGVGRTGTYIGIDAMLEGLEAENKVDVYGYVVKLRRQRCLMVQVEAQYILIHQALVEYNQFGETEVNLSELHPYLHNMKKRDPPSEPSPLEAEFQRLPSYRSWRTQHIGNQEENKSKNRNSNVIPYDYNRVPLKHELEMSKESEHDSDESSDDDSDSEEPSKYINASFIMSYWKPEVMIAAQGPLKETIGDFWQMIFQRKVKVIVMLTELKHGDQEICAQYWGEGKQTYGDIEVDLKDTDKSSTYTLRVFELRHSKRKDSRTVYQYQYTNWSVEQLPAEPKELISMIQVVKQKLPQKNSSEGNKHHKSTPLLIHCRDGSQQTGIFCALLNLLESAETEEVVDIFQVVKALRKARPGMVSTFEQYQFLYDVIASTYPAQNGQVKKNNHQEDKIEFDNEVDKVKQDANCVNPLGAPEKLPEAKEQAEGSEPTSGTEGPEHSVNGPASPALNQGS

[3] = Inhibition of ALR2 in rat lens using D,L-glyceraldehyde as substrate in presence of NADPH; format: tissue-based
[4] = biological target: T1, Tyrosine-protein phosphatase non-receptor type 1; assay: Inhibition of human PTP1B (1 to 298 residues) expressed in Escherichia coli using FDP as substrate by microplate reader
[5] = Inhibition of ALR2 in Wistar rat lens using D,L-glyceraldehyde as substrate preincubated for 10 mins in presence of NADPH followed by substrate addition and measured after 5 mins by spectrophotometric assay; format: tissue-based
[6] = biological target: T1, Tyrosine-protein phosphatase non-receptor type 1; assay: Inhibition of human PTP1B (1 to 411 residues) expressed in Escherichia coli BL21 (DE3) using GNGDpYMPMSPKS as phosphopeptide substrate incubated for 30 mins by malachite green reagent assay
[7] = biological target: Aldo-keto reductase family 1 member B1 (Sus scrofa, UniProt P80276); assay: Inhibition of ALR2 in pig lens using D,L-glyceraldehyde as substrate preincubated for 4 mins in presence of NADPH followed by substrate addition and measured after 4 mins by spectrophotometric assay; format: tissue-based
[8] = biological target: Aldo-keto reductase family 1 member B1 (Homo sapiens, UniProt P15121); assay: Inhibition of ALR2 (unknown origin)
[9] = biological target: T3, Aldo-keto reductase family 1 member B1 (Rattus norvegicus, UniProt P07943); assay: Inhibition of ALR in Fischer-344 rat lens using D,L-glyceraldehyde as substrate in presence of NADPH measured after 3 mins by spectrophotometric assay; format: tissue-based
[10] = Inhibition of human recombinant ALR1 expressed in Escherichia coli by Coomassie reagent assay
[11] = biological target: T3, Aldo-keto reductase family 1 member B1; assay: Inhibition of recombinant Aldose reductase in rat lens using D,L-glyceraldehyde as substrate in presence of NADPH measured after 4 mins by spectrophotometric assay; format: tissue-based
[12] = biological target: T1, Tyrosine-protein phosphatase non-receptor type 1; assay: Inhibition of PTP1B (unknown origin) assessed as inhibition constant
Homo sapiens [13] = species: Homo sapiens; assay: Selectivity ratio of Ki for PTP1B (unknown origin) to Ki for TCPTP (unknown origin)
[14] = Inhibition of ALR2 in Sprague-Dawley rat lens using D,L-glyceraldehyde as substrate preincubated for 10 mins in presence of NADPH followed by substrate addition and measured after 5 mins by spectrophotometric assay; format: tissue-based
[15] = biological target: T1, Tyrosine-protein phosphatase non-receptor type 1; assay: Inhibition of PTP1B (unknown origin) using OMFP as substrate by fluorescence assay
Homo sapiens [16] = species: Homo sapiens; assay: Selectivity ratio of Ki for human PTP1B expressed in Escherichia coli BL21 (DE3) to Ki for TCPTP (unknown origin)
Homo sapiens [17] = species: Homo sapiens; assay: Selectivity ratio of Ki for human PTP1B expressed in Escherichia coli BL21 (DE3) to Ki for LAR (unknown origin)
Homo sapiens [18] = species: Homo sapiens; assay: Selectivity ratio of Ki for human PTP1B expressed in Escherichia coli BL21 (DE3) to Ki for SHP-2 (unknown origin)
Homo sapiens [19] = species: Homo sapiens; assay: Selectivity ratio of Ki for human PTP1B expressed in Escherichia coli BL21 (DE3) to Ki for CD45 (unknown origin)
Homo sapiens [20] = species: Homo sapiens; assay: Selectivity ratio of Ki for human PTP1B expressed in Escherichia coli BL21 (DE3) to Ki for Calcineurin (unknown origin)
Homo sapiens [21] = species: Homo sapiens; assay: Selectivity ratio of IC50 for human PTP1B (1 to 298 residues) expressed in Escherichia coli BL21 (DE3) to IC50 for TCPTP (unknown origin)
[22] = biological target: T1, Tyrosine-protein phosphatase non-receptor type 1; assay: Inhibition of human PTP1B using pNPP as substrate incubated for 30 min
Homo sapiens [23] = species: Homo sapiens; assay: Selectivity ratio of Ki for PTP1B (unknown origin) to Ki for PTPalpha (unknown origin)
Homo sapiens [24] = species: Homo sapiens; assay: Selectivity ratio of Ki for PTP1B (unknown origin) to Ki for LAR (unknown origin)

O=C(c1ccccc1)C(Cc1ccc(C(F)(F)P(=O)(O)O)cc1)(Cc1ccc(C(F)(F)P(=O)(O)O)cc1)c1ccccc1
IC50 [1]: 6 nM | IC50 [2]: > 50000 nM

CC(C(=O)O)N1C(=O)C(=O)N(Cc2cccc([N+](=O)[O-])c2)C1=O (configuration not stated)
IC50 [3]: 2000 nM

O=P(O)(O)C(F)(F)c1ccc(C[C@](c2ccc(C(F)(F)P(=O)(O)O)cc2)(c2ccc(F)c(F)c2)n2nnc3ccccc32)cc1
IC50 [4]: 13 nM

O=C(O)CC1=CN(/C=C/c2ccc(O)cc2)S(=O)(=O)c2ccccc21
IC50 [5]: 94 nM

CS(=O)(=O)Oc1c(Cl)cccc1Cc1ccc(N2CC(=O)NS2(=O)=O)c(O)c1
IC50 [6]: 80 nM

CC(C)OC(=O)c1cc(CC(Cc2ccc(C(F)(F)P(=O)(O)O)cc2)(C(=O)c2ccccc2)c2ccccc2)ccc1C(F)(F)P(=O)(O)O (configuration not stated)
IC50 [1]: 6 nM | IC50 [2]: > 50000 nM

O=C(c1ccccc1)C(Cc1ccc(C(F)(F)P(=O)(O)O)c(Br)c1)c1ccccc1 (configuration not stated)
IC50 [1]: 6 nM | IC50 [2]: > 50000 nM

Cc1cc2c(s1)CCC1CC(=O)N(CCCCCC(=O)O)N=C21 (configuration not stated)
IC50 [7]: 18000 nM

O=C(O)CCCCCN1N=C2c3ccsc3CCC2CC1=O (configuration not stated)
IC50 [7]: 7600 nM

O=C(O)CNC(=O)c1ccc(N2C(=O)/C(=C/c3cn(-c4ccccc4)nc3-c3cccc(F)c3)SC2=S)cc1
IC50 [8]: 40 nM

Cc1cccc(-c2nn(-c3ccccc3)cc2/C=C2\SC(=S)N(c3ccc(C(=O)NCC(=O)O)cc3)C2=O)c1
IC50 [8]: 60 nM

O=C(O)Cn1ccc(-c2nc3ccccc3s2)c1
IC50 [9]: 49 nM

C/C(=N\NC(=S)Nc1cccc(Br)c1)c1ccc2c(c1)NC(=O)CO2
IC50 [8]: 520 nM

O=C(c1ccccc1)C(Cc1ccc(C(F)(F)P(=O)(O)O)c(Cl)c1)c1ccccc1 (configuration not stated)
IC50 [1]: 6 nM | IC50 [2]: > 50000 nM

O=C(O)COc1cc(F)ccc1C(=S)NCc1cccc([N+](=O)[O-])c1
IC50 [10]: 35000 nM

O=C(O)COc1cc(F)ccc1C(=S)NCc1ccc(Br)cc1F
IC50 [10]: 33000 nM

O=C1CC2(C(=O)N1)c1ccc(O)cc1C=Cc1cc(O)ccc12
IC50 [11]: 3000 nM

O=C(O)CC1=CN(/C=C/c2ccc(O)c(O)c2)S(=O)(=O)c2ccccc21
IC50 [5]: 126 nM

COC(=O)c1c(O)cccc1OC/C=C/c1ccc(F)c(-c2cc(C(=O)O)no2)c1
Ki [12]: 6900 nM | Ratio Ki (Homo sapiens [13]): 20

O=c1c(/C=C/c2ccc(O)cc2)nc2ccc(F)cc2n1-c1cnn(O)c1
IC50 [14]: 107 nM

O=C(O)Cn1c2ccccc2n2c(=O)c(=O)n(Cc3ccccc3)nc12
IC50 [14]: 360 nM

O=C(c1ccc(CN(Cc2ccc(C(=O)C(F)(F)P(=O)(O)O)cc2)S(=O)(=O)c2cc(F)ccc2F)cc1)C(F)(F)P(=O)(O)O
IC50 [15]: 500 nM

COc1ccc2cc(O)c(N3CC(=O)NS3(=O)=O)cc2c1
IC50 [6]: 80 nM

COC(=O)c1c(O)cccc1OC/C=C/c1cccc(-c2onc(C(=O)O)c2CO)c1
Ki [12]: 920 nM | Ratio Ki (Homo sapiens [13]): 20

CC(C(=O)O)N1C(=O)C(=O)N(Cc2ccc(Cl)c(Cl)c2)C1=O (configuration not stated)
IC50 [3]: 75 nM

CC(=O)N[C@@H](Cc1ccc(N(C(=O)C(=O)O)c2ccccc2C(=O)O)c2ccccc12)C(=O)NCCCCCOc1cc2ccccc2cc1C(=O)O
Ratio Ki (Homo sapiens [16]): 2 | Ratio Ki (Homo sapiens [17]): 36 | Ratio Ki (Homo sapiens [18]): 104 | Ratio Ki (Homo sapiens [19]): 2700 | Ratio Ki (Homo sapiens [20]): > 13000

O=P(O)(O)C(F)(F)c1ccc(C[C@](/C=C/c2ccccc2)(c2nc3ccccc3s2)n2nnc3ccccc32)cc1
IC50 [4]: 23 nM

COc1ccc2c(c1)C=Cc1cc(OC)ccc1C2/C=C1\SC(=O)NC1=O
IC50 [11]: 3400 nM

COC(=O)c1c(O)cccc1OC/C=C/c1cccc(-c2onc(C(=O)O)c2N)c1
Ki [12]: 2100 nM | Ratio Ki (Homo sapiens [13]): 20

COC(CC(C)C)c1ccc2ccc(CC(Cc3ccc(C(F)(F)P(=O)(O)O)cc3)(c3ccccc3)n3nnc4ccccc43)c(P(=O)(O)O)c2n1 (configuration not stated)
IC50 [4]: 5 nM | Ratio IC50 (Homo sapiens [21]): 7.2

CCc1cc(Br)ccc1S(=O)(=O)N(Cc1ccc(C(=O)C(F)(F)P(=O)(O)O)cc1)Cc1ccc(C(=O)C(F)(F)P(=O)(O)O)cc1
IC50 [15]: 500 nM

CCCCCCS(=O)(=O)NC(=O)c1ccc(CSCc2ccc(-c3ccccc3)cc2)cc1
IC50 [22]: 280 nM

O=C1CN(c2c(O)cc(CC3CCCCC3)cc2F)S(=O)(=O)N1
IC50 [6]: 80 nM

O=C1CN(c2ccc(-c3ccc[nH]3)cc2O)S(=O)(=O)N1
IC50 [6]: 80 nM

C/C(=N\NC(=S)Nc1cccc(F)c1)c1ccc2c(c1)NC(=O)CO2
IC50 [8]: 190 nM

O=C(O)COc1ccc(-c2cc(NC(=O)C(=O)O)c(C(=O)O)s2)cc1
Ratio Ki (Homo sapiens [23]): 20 | Ratio Ki (Homo sapiens [24]): 20

O=C1C(=O)N(C2(C(=O)O)CCCCC2)C(=O)N1Cc1ccc(Cl)cc1Cl
IC50 [3]: 50 nM

O=P(O)(O)C(F)(F)c1ccc(C[C@@](c2ccccc2)(c2ccc(C(F)(F)P(=O)(O)O)cc2)n2nnc3ccccc32)cc1
IC50 [4]: 16 nM

O=C(O)Cn1cc(-c2nc3ccccc3s2)cc1C(=O)c1ccccc1
IC50 [9]: 45 nM
